# Like-named read-outs stand apart in the source and are kept apart here.
# Assays:
# Type in all cases: biochemical
# [1] = molecular target: T1, PDE1A (Homo sapiens, UniProt P54750); experiment: Phosphodiesterase enzyme screening assay, PDE1A
# T1 construct: purchased Reaction Biology Corporation, Malvern, Pa
# Procedure, shortened: (§1)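 Recombinant enzymes were run in 100 mM HEPES pH 7.5, 5 mM MgCl2, 1 mM DTT, 0.003% Brij with 4.0 μM cGMP substrate, started with cGMP or cAMP, 1 h at RT, and stopped with EDTA. Fluorescent substrate and product were separated by microfluidic mobility shift.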
# [2] = molecular target: T2, PDE1B (Homo sapiens, UniProt Q01064); experiment: Phosphodiesterase enzyme screening assay, PDE1B
# T2 construct: purchased Reaction Biology Corporation, Malvern, Pa
# T2 sequence (Q01064 whole entry): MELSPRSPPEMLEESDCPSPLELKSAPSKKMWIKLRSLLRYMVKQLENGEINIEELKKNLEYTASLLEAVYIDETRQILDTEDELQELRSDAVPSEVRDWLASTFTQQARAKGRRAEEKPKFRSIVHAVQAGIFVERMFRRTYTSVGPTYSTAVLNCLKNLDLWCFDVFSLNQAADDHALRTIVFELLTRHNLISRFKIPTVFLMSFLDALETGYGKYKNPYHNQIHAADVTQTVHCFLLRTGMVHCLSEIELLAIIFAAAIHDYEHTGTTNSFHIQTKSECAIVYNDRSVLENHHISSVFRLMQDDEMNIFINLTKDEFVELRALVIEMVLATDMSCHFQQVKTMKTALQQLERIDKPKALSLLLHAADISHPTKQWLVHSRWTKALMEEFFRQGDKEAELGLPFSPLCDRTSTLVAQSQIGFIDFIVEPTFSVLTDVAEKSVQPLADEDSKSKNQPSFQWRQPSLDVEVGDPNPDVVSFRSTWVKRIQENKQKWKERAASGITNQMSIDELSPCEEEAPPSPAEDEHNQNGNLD
# Procedure, shortened: as §1
# [3] = molecular target: T3, PDE9A2 (Homo sapiens, UniProt O76083); experiment: Phosphodiesterase enzyme screening assay, PDE9A2; details: read-out: Band (PDE9A2 IC50)
# T3 construct: purchased Reaction Biology Corporation, Malvern, Pa
# T3 sequence (O76083 1-533 isoform O76083-2): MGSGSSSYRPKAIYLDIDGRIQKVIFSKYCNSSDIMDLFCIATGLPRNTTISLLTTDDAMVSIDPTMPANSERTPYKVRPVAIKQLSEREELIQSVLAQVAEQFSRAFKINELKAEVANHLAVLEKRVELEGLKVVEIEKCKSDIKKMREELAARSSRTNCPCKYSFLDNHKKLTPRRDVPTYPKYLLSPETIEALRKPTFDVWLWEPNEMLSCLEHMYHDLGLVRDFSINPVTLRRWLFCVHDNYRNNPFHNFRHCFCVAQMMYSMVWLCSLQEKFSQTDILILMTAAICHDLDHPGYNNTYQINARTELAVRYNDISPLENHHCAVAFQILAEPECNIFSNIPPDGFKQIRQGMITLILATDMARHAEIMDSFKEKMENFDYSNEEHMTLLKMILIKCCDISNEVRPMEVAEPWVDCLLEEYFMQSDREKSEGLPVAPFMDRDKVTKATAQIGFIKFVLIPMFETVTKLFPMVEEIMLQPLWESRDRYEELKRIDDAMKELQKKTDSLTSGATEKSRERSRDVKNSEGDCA
# Procedure, shortened: as §1
# [4] = ratio of IC50 values, value greater than 1 indicates greater selectivity for PDE9A2
# [5] = Table 1, ratio of IC50 values, value greater than 1 indicates greater selectivity for PDE9A2
# [6] = Table 1, 10 concentrations, 4.0 μM cGMP substrate, 1 hour at R.T.
# [7] = ratio of IC50 values, PDE1A versus PDE9A2, value greater than 1 = greater selectivity for PDE9A2
# [8] = ratio of IC50 values, PDE1B versus PDE9A2, value greater than 1 = greater selectivity for PDE9A2
# [9] = Table 3, 4.0 μM cGMP substrate, 1 hour at R.T.
# [10] = Table 2, ratio of IC50 values, value greater than 1 indicates greater selectivity for PDE9A2
# [11] = Table 2, 10 concentrations, 4.0 μM cGMP substrate, 1 hour at R.T.
# [12] = ratio of IC50 values PDE1A / PDE9A2, value greater than 1 = greater selectivity for PDE9A2
# [13] = ratio of IC50 values PDE1B / PDE9A2, value greater than 1 = greater selectivity for PDE9A2
# [14] = 4.0 μM cGMP substrate, 1 hour at R.T.
# T1 sequence (P54750 whole entry): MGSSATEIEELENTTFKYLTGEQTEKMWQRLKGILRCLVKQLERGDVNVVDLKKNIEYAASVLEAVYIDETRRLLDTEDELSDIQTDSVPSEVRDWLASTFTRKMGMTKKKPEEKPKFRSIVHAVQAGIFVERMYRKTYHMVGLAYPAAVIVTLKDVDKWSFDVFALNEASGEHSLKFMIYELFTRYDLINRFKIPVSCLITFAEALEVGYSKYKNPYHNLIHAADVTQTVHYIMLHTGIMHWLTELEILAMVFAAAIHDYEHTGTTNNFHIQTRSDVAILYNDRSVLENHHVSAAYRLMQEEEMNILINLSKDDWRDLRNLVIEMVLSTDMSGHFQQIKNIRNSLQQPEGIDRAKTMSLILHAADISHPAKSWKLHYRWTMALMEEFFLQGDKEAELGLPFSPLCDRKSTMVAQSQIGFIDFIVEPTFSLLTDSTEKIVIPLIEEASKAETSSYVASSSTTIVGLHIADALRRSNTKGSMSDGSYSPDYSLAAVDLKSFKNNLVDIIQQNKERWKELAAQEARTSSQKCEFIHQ
smiles,measurement,setting,value
"Cc1nc(CN2CC(C)C(c3nn4c(C5CCOCC5)ncc4c(=O)[nH]3)C2)cs1 (single isomer, unassigned; (+)) [(+)-2-((3,4-trans)-4-methyl-1-((2-methylthiazol-4-yl)methyl)pyrrolidin-3-yl)-7-(tetrahydro-2H-pyran-4-yl)imidazo[5,1-f][1,2,4]triazin-4(3H)-one]",PDE1A selectivity (versus PDE9A2),[1]; [4],12
same,PDE1B selectivity (versus PDE9A2),[2]; [4],19
same,IC50,[3],< 1 µM
"Cc1ncc(CN2CC(C)C(c3nn4c(C5CCOCC5)ncc4c(=O)[nH]3)C2)s1 (single isomer, unassigned; (+)) [(+)-2-((3,4-trans)-4-methyl-1-((2-methylthiazol-5-yl)methyl)pyrrolidin-3-yl)-7-(tetrahydro-2H-pyran-4-yl)imidazo[5,1-f][1,2,4]triazin-4(3H)-one]",PDE1A selectivity (versus PDE9A2),[1]; [5],129
same,PDE1B selectivity (versus PDE9A2),[2]; [5],243
same,IC50,[3]; [6],< 1 µM
"CC1CN(Cc2ccc[nH]c2=O)CC1c1nn2c(C3CCOCC3)ncc2c(=O)[nH]1 (single isomer, unassigned; (+)) [(+)-2-((3,4-trans)-4-methyl-1-((2-oxo-1,2-dihydropyridin-3-yl)methyl)pyrrolidin-3-yl)-7-(tetrahydro-2H-pyran-4-yl)imidazo[5,1-f][1,2,4]triazin-4(3H)-one]",PDE1A selectivity (versus PDE9A2),[1]; [5],424
same,PDE1B selectivity (versus PDE9A2),[2]; [5],940
same,IC50,[3]; [6],< 1 µM
"CC1CN(Cc2ncccc2C(F)(F)F)CC1c1nn2c(C3CCOCC3)ncc2c(=O)[nH]1 (single isomer, unassigned; (+)) [(+)-2-((3,4-trans)-4-methyl-1-((3-(trifluoromethyl)pyridin-2-yl)methyl)pyrrolidin-3-yl)-7-(tetrahydro-2H-pyran-4-yl)imidazo[5,1-f][1,2,4]triazin-4(3H)-one]",PDE1A selectivity (versus PDE9A2),[1]; [7],123
same,PDE1B selectivity (versus PDE9A2),[2]; [8],58
same,IC50,[3]; [9],< 1 µM
"Cc1cccnc1CN1CC(C)C(c2nn3c(C4CCOCC4)ncc3c(=O)[nH]2)C1 (single isomer, unassigned; (+)) [(+)-2-((3,4-trans)-4-methyl-1-((3-methylpyridin-2-yl)methyl)pyrrolidin-3-yl)-7-(tetrahydro-2H-pyran-4-yl)imidazo[5,1-f][1,2,4]triazin-4(3H)-one]",PDE1A selectivity (versus PDE9A2),[1]; [7],242
same,PDE1B selectivity (versus PDE9A2),[2]; [8],298
same,IC50,[3]; [9],< 1 µM
"CC1CN(Cc2cnn3c2CCCC3)CC1c1nn2c(C3CCOCC3)ncc2c(=O)[nH]1 (single isomer, unassigned; (+)) [(+)-2-((3,4-trans)-4-methyl-1-((4,5,6,7-tetrahydropyrazolo[1,5-a]pyridin-3-yl)methyl)pyrrolidin-3-yl)-7-(tetrahydro-2H-pyran-4-yl)imidazo[5,1-f][1,2,4]triazin-4(3H)-one]",PDE1A selectivity (versus PDE9A2),[1]; [4],337
same,PDE1B selectivity (versus PDE9A2),[2]; [4],337
same,IC50,[3],< 1 µM
"CC1CN(Cc2nccc(C(F)(F)F)n2)CC1c1nn2c(C3CCOCC3)ncc2c(=O)[nH]1 (single isomer, unassigned; (+)) [(+)-2-((3,4-trans)-4-methyl-1-((4-(trifluoromethyl)pyrimidin-2-yl)methyl)pyrrolidin-3-yl)-7-(tetrahydro-2H-pyran-4-yl)imidazo[5,1-f][1,2,4]triazin-4(3H)-one]",PDE1A selectivity (versus PDE9A2),[1]; [10],585
same,PDE1B selectivity (versus PDE9A2),[2]; [10],566
same,IC50,[3]; [11],< 1 µM
"Cc1ccnc(CN2CC(C)C(c3nn4c(C5CCOCC5)ncc4c(=O)[nH]3)C2)c1 (single isomer, unassigned; (+)) [(+)-2-((3,4-trans)-4-methyl-1-((4-methylpyridin-2-yl)methyl)pyrrolidin-3-yl)-7-(tetrahydro-2H-pyran-4-yl)imidazo[5,1-f][1,2,4]triazin-4(3H)-one]",PDE1A selectivity (versus PDE9A2),[1]; [12],143
same,PDE1B selectivity (versus PDE9A2),[2]; [13],116
same,IC50,[3]; [14],< 1 µM
"Cc1ccnc(CN2CC(C)C(c3nn4c(C5CCOCC5)ncc4c(=O)[nH]3)C2)n1 (single isomer, unassigned; (+)) [(+)-2-((3,4-trans)-4-methyl-1-((4-methylpyrimidin-2-yl)methyl)pyrrolidin-3-yl)-7-(tetrahydro-2H-pyran-4-yl)imidazo[5,1-f][1,2,4]triazin-4(3H)-one]",PDE1A selectivity (versus PDE9A2),[1]; [10],182
same,PDE1B selectivity (versus PDE9A2),[2]; [10],220
same,IC50,[3]; [11],< 1 µM
"CC1CN(Cc2ncc(N3CCCC3)cn2)CC1c1nn2c(C3CCOCC3)ncc2c(=O)[nH]1 (single isomer, unassigned; (+)) [(+)-2-((3,4-trans)-4-methyl-1-((5-(pyrrolidin-1-yl)pyrimidin-2-yl)methyl)pyrrolidin-3-yl)-7-(tetrahydro-2H-pyran-4-yl)imidazo[5,1-f][1,2,4]triazin-4(3H)-one]",PDE1A selectivity (versus PDE9A2),[1]; [10],105
same,PDE1B selectivity (versus PDE9A2),[2]; [10],496
same,IC50,[3]; [11],< 1 µM
"CC1CN(Cc2ccc(C(F)(F)F)cn2)CC1c1nn2c(C3CCOCC3)ncc2c(=O)[nH]1 (single isomer, unassigned; (+)) [(+)-2-((3,4-trans)-4-methyl-1-((5-(trifluoromethyl)pyridin-2-yl)methyl)pyrrolidin-3-yl)-7-(tetrahydro-2H-pyran-4-yl)imidazo[5,1-f][1,2,4]triazin-4(3H)-one]",PDE1A selectivity (versus PDE9A2),[1]; [7],258
same,PDE1B selectivity (versus PDE9A2),[2]; [8],560
same,IC50,[3]; [9],< 1 µM
"Cc1nc(CN2CC(C)C(c3nn4c(C5CCOCC5)ncc4c(=O)[nH]3)C2)no1 (single isomer, unassigned; (+)) [(+)-2-((3,4-trans)-4-methyl-1-((5-methyl-1,2,4-oxadiazol-3-yl)methyl)pyrrolidin-3-yl)-7-(tetrahydro-2H-pyran-4-yl)imidazo[5,1-f][1,2,4]triazin-4(3H)-one]",PDE1A selectivity (versus PDE9A2),[1]; [4],20
same,PDE1B selectivity (versus PDE9A2),[2]; [4],21
same,IC50,[3],< 1 µM
"Cc1cnc(CN2CC(C)C(c3nn4c(C5CCOCC5)ncc4c(=O)[nH]3)C2)nc1 (single isomer, unassigned; (+)) [(+)-2-((3,4-trans)-4-methyl-1-((5-methylpyrimidin-2-yl)methyl)pyrrolidin-3-yl)-7-(tetrahydro-2H-pyran-4-yl)imidazo[5,1-f][1,2,4]triazin-4(3H)-one]",PDE1A selectivity (versus PDE9A2),[1]; [10],42
same,PDE1B selectivity (versus PDE9A2),[2]; [10],76
same,IC50,[3]; [11],< 1 µM
"CC1CN(Cc2cccc(C(F)(F)F)n2)CC1c1nn2c(C3CCOCC3)ncc2c(=O)[nH]1 (single isomer, unassigned; (+)) [(+)-2-((3,4-trans)-4-methyl-1-((6-(trifluoromethyl)pyridin-2-yl)methyl)pyrrolidin-3-yl)-7-(tetrahydro-2H-pyran-4-yl)imidazo[5,1-f][1,2,4]triazin-4(3H)-one]",PDE1A selectivity (versus PDE9A2),[1]; [7],708
same,PDE1B selectivity (versus PDE9A2),[2]; [8],389
same,IC50,[3]; [9],< 1 µM
"CC1CN(Cc2ccc(C(F)(F)F)nc2)CC1c1nn2c(C3CCOCC3)ncc2c(=O)[nH]1 (single isomer, unassigned; (+)) [(+)-2-((3,4-trans)-4-methyl-1-((6-(trifluoromethyl)pyridin-3-yl)methyl)pyrrolidin-3-yl)-7-(tetrahydro-2H-pyran-4-yl)imidazo[5,1-f][1,2,4]triazin-4(3H)-one]",PDE1A selectivity (versus PDE9A2),[1]; [5],333
same,PDE1B selectivity (versus PDE9A2),[2]; [5],980
same,IC50,[3]; [6],< 1 µM
"Cc1cccc(CN2CC(C)C(c3nn4c(C5CCOCC5)ncc4c(=O)[nH]3)C2)n1 (single isomer, unassigned; (+)) [(+)-2-((3,4-trans)-4-methyl-1-((6-methylpyridin-2-yl)methyl)pyrrolidin-3-yl)-7-(tetrahydro-2H-pyran-4-yl)imidazo[5,1-f][1,2,4]triazin-4(3H)-one]",PDE1A selectivity (versus PDE9A2),[1]; [12],780
same,PDE1B selectivity (versus PDE9A2),[2]; [13],1005
same,IC50,[3]; [14],< 1 µM
"Cc1ccc(CN2CC(C)C(c3nn4c(C5CCOCC5)ncc4c(=O)[nH]3)C2)cn1 (single isomer, unassigned; (+)) [(+)-2-((3,4-trans)-4-methyl-1-((6-methylpyridin-3-yl)methyl)pyrrolidin-3-yl)-7-(tetrahydro-2H-pyran-4-yl)imidazo[5,1-f][1,2,4]triazin-4(3H)-one]",PDE1A selectivity (versus PDE9A2),[1]; [5],97
same,PDE1B selectivity (versus PDE9A2),[2]; [5],177
same,IC50,[3]; [6],< 1 µM
"CC1CN(CC2CCOCC2)CC1c1nn2c(C3CCOCC3)ncc2c(=O)[nH]1 (single isomer, unassigned; (+)) [(+)-2-((3,4-trans)-4-methyl-1-((tetrahydro-2H-pyran-4-yl)methyl)pyrrolidin-3-yl)-7-(tetrahydro-2H-pyran-4-yl)imidazo[5,1-f][1,2,4]triazin-4(3H)-one]",PDE1A selectivity (versus PDE9A2),[1]; [4],77
same,PDE1B selectivity (versus PDE9A2),[2]; [4],93
same,IC50,[3],< 1 µM
"CC1CN(Cc2ncco2)CC1c1nn2c(C3CCOCC3)ncc2c(=O)[nH]1 (single isomer, unassigned; (+)) [(+)-2-((3,4-trans)-4-methyl-1-(oxazol-2-ylmethyl)pyrrolidin-3-yl)-7-(tetrahydro-2H-pyran-4-yl)imidazo[5,1-f][1,2,4]triazin-4(3H)-one]",PDE1A selectivity (versus PDE9A2),[1]; [4],81
same,PDE1B selectivity (versus PDE9A2),[2]; [4],119
same,IC50,[3],< 1 µM

# Reference: US9969742B2, “Imidazotriazinone compounds” (Ironwood Pharmaceuticals, Inc., priority 2012, dated 2018)
